# US20070026431A1, “Modulation of MAPK-mediated phosphorylation and/or FBXW8-mediated ubiquitinylation of cyclin D1 in modulation of cellular proliferation” (priority 2005, published 2007)
# “Also recorded” adds a separate entry of the source.
# Columns and labels:
# cyclin D1 protein = assay: Pulse-chase analysis of cyclin D1 protein in HCT 116 cells; type: cell-based, human; conditions: HCT 116; 5 μM BIO 24 hours
# Procedure: (§1) FIG. 11 illustrates that ERK/MAPK is identified as the major kinase that is responsible for the stability of cyclin D1 protein. Panels A-F: Pulse-chase analysis of cyclin D1 protein in HCT 116 cells after exposure to the MEK inhibitor U0126 (A-C) or the GSK3 inhibitor BIO (D-F). Exponentially growing HCT 116 cells were treated with either DMSO or 10 μM of U0126 (A-C) for 30 minutes, or DMSO or 5 μM of BIO (D-F) for 24 hours. Panels A and D: Cells were pulse-labeled with ^35S-methionine for 1 hour. Subsequently these cells were chased with cold methionine for the indicated times, and then lysed respectively. Cyclin D1 was immunoprecipitated and then analyzed with SDS-PAGE. Autoradiography was performed. Levels of metabolically labeled-cyclin D1 were estimated by quantitative scanning using the Quantity One (Bio-Rad) software and blotted on the graph to determine the half-life of cyclin D1. […]
# FIG. 18 illustrates that knockdown of FBXW8, or its partner CUL1 or CUL7 expression through siRNA stabilizes cyclin D1 expression in HCT 116 colon cancer cells. […] Cyclin D1 was immunoprecipitated and then analyzed with SDS-PAGE. Levels of metabolically labeled-cyclin D1 were estimated by quantitative scanning using the Quantity One software (Bio-Rad) and blotted on the graph to determine the half-life of cyclin D1 (D).
# Pulse-Chase Analysis. […] Cyclin D1 was immunoprecipitated and then analyzed with SDS-PAGE. […]
# GSK3α/β = assay: Phosphorylation-specific blot for GSK3α/β, HCT 116 cells; type: cell-based, human; conditions: BIO 24 hours
# Procedure: as §1, with “D1. Panels B and E: Western blot analysis. The membrane was blotted with a cyclin D1 Thr286 phosphorylation specific (pThr286), total cyclin D1, a phosphorylation specific ERK, and total ERK antibodies (B), or a pThr286, cyclin D1, a GSKα/β phosphorylation specific, and GSK3β antibodies (E). Panels C and F: Cell cycle distributions were shown.” for “D1.”
# In contrast, no effect on phosphorylation status and stability of cyclin D1 protein through inhibition of GSK3α/β (FIG. 14, Panels D-F) were detected. […]
# [1] = test system: cyclin D1 Thr286 phosphorylation; assay: Thr286 phosphorylation of transfected ΔD cyclin D1 after BIO, NIH 3T3 cells; type: cell-based, mouse; conditions: 5 μM BIO 24 hours after transfection
# Excerpt: FIG. 9 illustrates that MAPK directly binds to cyclin D1 through the MAPK docking site (D-domain) within cyclin D1 and phosphorylates it specifically at Thr286. Panel A: p42 ERK2-associated GST-cyclin D1 (CD1) in vitro kinase assays (upper panels). Purified ERK2 phosphorylates cyclin D1 in vitro. Immuno-blotting (IB) analyses stained with a GST antibody (lower panels) were provided as a reference to show loading conditions of various forms of GST-CD1 fusion proteins. (A) GST alone (lane 1), GST-human (h) CD1 amino acids (A.A.) from 165 to 295 (165-295, lane 2), GST-human (h) or mouse (m) CD1 A.A. from 255 to 295 (255-295, lane 3 and 4) were used. Panel B: Western blot analysis following transfection of various forms of HA-tagged cyclin D1 expression vectors in both NIH 3T3 mouse fibroblast (left) and HCT 116 colon cancer (right) cells. In lane 5 and 10, Cells were treated with 5 μM of a highly specific GSK3β inhibitor BIO for further 24 hours following transfcetion of the ΔD CD1 mutant.
# FIG. 11 illustrates that ERK/MAPK is identified as the major kinase that is responsible for the stability of cyclin D1 protein. […] Cyclin D1 was immunoprecipitated and then analyzed with SDS-PAGE. […] Levels of metabolically labeled-cyclin D1 were estimated by quantitative scanning using the Quantity One (Bio-Rad) software and blotted on the graph to determine the half-life of cyclin D1. […]
# cyclin D1 = assay: Immunofluorescence, subcellular localization of cyclin D1 in HCT 116 cells; type: cell-based, human; conditions: 5 μM BIO 24 hours, BrdU pulse
# Procedure: Panels A-C: Immunofluorescence analysis. Nuclei were visualized with Hoechst dye. […] Panel A: Subcellular localization of cyclin D1. […] Panel B: Subcellular localization of the E3 ligase. […] Panel D: Immunoprecipitated-immunoblotting analysis. Panel E: Cell cycle distributions.
# Immunofluorescence Analysis. Cultured cells on multiwell chamber slides (Nalge Nunc) were fixed with 4% paraformaldehyde in PBS and permeabilized in PBS containing 0.1% Triton X-100. Primary antibodies were diluted 1:100 in PBS containing 5% normal goat serum and applied for 2 hours. Proteins were detected either with mouse monoclonal antibodies or rabbit polyclonal antibodies followed by fluorescent substrate conjugated anti-mouse or anti-rabbit secondary antibody (Molecular Probes). For example, Cyclin D1 was detected either with mouse monoclonal cyclin D1 antibody (A-12, Santa Cruz) followed by fluorescent substrate conjugated anti-mouse or anti-rabbit secondary antibody (Molecular Probes). Nuclei were visualized using Hoechst 33258 (Molecular Probes). Fluorescence image was detected using LEICADMRD microscope (Leica).
# Exponentially growing HCT 116 colon cancer cells were treated with the GSK3 inhibitor BIO for 24 hours. […] The subcellular distribution of cyclin D1 was visualized under the microscope (FIG. 12, Panel A). […]
structure (smiles),measurement,setting,value
O=C1Nc2cc(Br)ccc2/C1=C1/Nc2ccccc2/C1=N\O [BIO],half-life of cyclin D1 protein,cyclin D1 protein,no significant difference
same,phosphorylated forms of GSK3α/β,GSK3α/β,disappeared
same,phosphorylation status of cyclin D1 at Thr286 (ΔD mutant),[1],slight change; also recorded: reduction
same,subcellular localization of cyclin D1,cyclin D1,no significant difference
